Measured values as given in ChEMBL document CHEMBL5625249, “Optimization and antifungal activity of quinoline derivatives linked to chalcone moiety combined with FLC against Candida albicans” (Eur J Med Chem, 2023).
Calls of active or inactive are those of the source. The rule behind the calls is not given here.

What was measured:
[1] = system: Candida albicans; test: Synergistic antifungal activity against FLC-resistant Candida albicans ATCC 14053 assessed as inhibition of hyphal formation by measuring down regulation of RAS1 gene expression at 1 ug/ml measured after 16 to 18 hrs in presence of fluconazole by qRT-PCR analysis; type: functional, organism-based; settings: dose 1.0 µg/ml, time 16-18 hrs
[2] = system: Candida albicans; test: Synergistic antifungal activity against FLC-resistant Candida albicans ATCC 14053 assessed as inhibition of hyphal formation by measuring down regulation of ALS3 gene expression at 1 ug/ml measured after 16 to 18 hrs in presence of fluconazole by qRT-PCR analysis; type: functional, organism-based; settings: dose 1.0 µg/ml, time 16-18 hrs
[3] = system: Candida albicans; test: Synergistic antifungal activity against clinical FLC-resistant Candida albicans 4574 measured after 24 hrs by microdilution method; type: functional
[4] = system: Candida albicans; test: In vivo antifungal activity against FLC-resistant Candida albicans ATCC 14053 infected in Balb/c mouse assessed as reduction in liver fungal load at 7.5 to 15 mg/kg, ig measured after 6 days in presence of fluconazole; type: functional, organism-based; settings: dose 7.5-15 mg/kg, time 6.0 day
[5] = system: Candida albicans; test: Synergistic antifungal activity against clinical FLC-resistant Candida albicans 3511 measured after 24 hrs by microdilution method; type: functional
[6] = system: Candida albicans; test: Antifungal activity against FLC-resistant Candida albicans ATCC 14053 at 1 ug/mL measured over 48 hrs by time-killing assay; type: functional, organism-based; settings: dose 1.0 µg/ml
[7] = Toxicity in Balb/c mouse assessed as death at 15 mg/kg, ig measured daily for 6 days; type: organism-based; settings: in vivo, po, 144 h, time 6 day
[8] = system: Candida albicans; test: Synergistic antifungal activity against FLC-resistant Candida albicans ATCC 14053 cultured in spider medium assessed as inhibition of hyphal formation at 1 ug/ml measured after 2 hrs in presence of fluconazole by inverted microscopy; type: functional, organism-based; settings: dose 1.0 µg/ml
[9] = system: Candida albicans; test: Antifungal activity against FLC-resistant Candida albicans ATCC 14053 measured after 24 hrs by microdilution method; type: functional
[10] = system: Candida albicans; test: In vivo antifungal activity against FLC-resistant Candida albicans ATCC 14053 infected in Balb/c mouse assessed as reduction in kidney fungal load at 7.5 to 15 mg/kg, ig measured after 6 days in presence of fluconazole; type: functional, organism-based; settings: dose 7.5-15 mg/kg, time 6.0 day
[11] = system: Candida albicans; test: In vivo antifungal activity against FLC-resistant Candida albicans ATCC 14053 infected in Balb/c mouse assessed as reduction in infiltration of inflammatory cells at 15 mg/kg, ig measured after 6 days by H and E staining based histopathological analysis; type: functional, organism-based; settings: time 6.0 day
[12] = Cytotoxicity against human 16-HBE cells assessed as cell survival at 90 ug/ml measured after 24 hrs by MTS assay relative to control; type: toxicity, cell-based; settings: 16-HBE cells (16HBE14o-), at 90 µg/mL, read-out: Survival
[13] = system: Candida albicans; test: Antifungal activity against Clinical FLC-resistant Candida albicans 23 measured after 24 hrs by microdilution method; type: functional
[14] = system: Candida albicans; test: Induction of reactive oxygen species production in FLC-resistant Candida albicans ATCC 14053 at 1 ug/mL measured after 16 to 18 hrs in presence of fluconazole by DCFH-DA staining based fluorescence assay; type: functional, organism-based; settings: dose 1.0 µg/ml, time 16-18 hrs
[15] = system: Candida albicans; test: Synergistic antifungal activity against clinical FLC-resistant Candida albicans 602 assessed as fractional inhibitory concentration index measured after 24 hrs by microdilution method; type: functional
[16] = system: Candida albicans; test: Synergistic antifungal activity against clinical FLC-resistant Candida albicans 381 measured after 24 hrs by microdilution method; type: functional
[17] = system: Candida albicans; test: Synergistic antifungal activity against FLC-resistant Candida albicans ATCC 14053 measured over 48 hrs in presence of fluconazole by time-killing assay; type: functional, organism-based
[18] = system: Candida albicans; test: Antifungal activity against clinical FLC-resistant Candida albicans 550 measured after 24 hrs by microdilution method; type: functional
[19] = system: Candida albicans; test: Synergistic antifungal activity against clinical FLC-resistant Candida albicans 550 measured after 24 hrs by microdilution method; type: functional
[20] = system: Candida albicans; test: In vivo antifungal activity against FLC-resistant Candida albicans ATCC 14053 infected in Balb/c mouse assessed as reduction in lung fungal load at 15 mg/kg, ig measured after 6 days; type: functional, organism-based; settings: time 6.0 day
[21] = system: Candida albicans; test: Synergistic antifungal activity against clinical FLC-resistant Candida albicans 550 assessed as fractional inhibitory concentration index measured after 24 hrs by microdilution method; type: functional
[22] = system: Candida albicans; test: Synergistic antifungal activity against FLC-resistant Candida albicans ATCC 14053 assessed as inhibition of rhodamine 6G efflux incubated for 4 hrs under shaking condition in presence of fluconazole by Rhodamine 6G staining based fluorescence assay; type: functional, organism-based
[23] = system: Candida albicans; test: Synergistic antifungal activity against clinical FLC-resistant Candida albicans 3816 measured after 24 hrs by microdilution method; type: functional
[24] = system: Candida albicans; test: Antifungal activity against clinical FLC-resistant Candida albicans 4508 measured after 24 hrs by microdilution method; type: functional
[25] = system: Candida albicans; test: Antifungal activity against clinical FLC-resistant Candida albicans 187 measured after 24 hrs by microdilution method; type: functional
[26] = system: Candida albicans; test: Synergistic antifungal activity against FLC-sensitive Candida albicans SC5314 assessed as fractional inhibitory concentration index measured after 24 hrs in presence of fluconazole by microdilution method; type: functional
[27] = system: Candida albicans; test: Synergistic antifungal activity against FLC-resistant Candida albicans ATCC 14053 cultured in SD +10% FBS liquid medium assessed as inhibition of hyphal formation at 1 ug/ml measured after 2 hrs in presence of fluconazole by inverted microscopy; type: functional, organism-based; settings: dose 1.0 µg/ml
[28] = system: Candida albicans; test: In vivo antifungal activity against FLC-resistant Candida albicans ATCC 14053 infected in Balb/c mouse assessed as removal of colonized fungi at 15 mg/kg, ig measured after 6 days by H and E staining based histopathological analysis; type: functional, organism-based; settings: time 6.0 day
[29] = system: Candida albicans; test: Antifungal activity against FLC-resistant Candida albicans ATCC 14053 cultured in SD +10% FBS liquid medium assessed as inhibition of hyphal formation at 1 ug/ml measured after 2 hrs by inverted microscopy; type: functional, organism-based; settings: dose 1.0 µg/ml
[30] = system: Candida albicans; test: Synergistic antifungal activity against FLC-resistant Candida albicans ATCC 14053 assessed as inhibition of hyphal formation by measuring down regulation of EFG1 gene expression at 1 ug/ml measured after 16 to 18 hrs in presence of fluconazole by qRT-PCR analysis; type: functional, organism-based; settings: dose 1.0 µg/ml, time 16-18 hrs
[31] = system: Candida albicans; test: Synergistic antifungal activity against FLC-resistant Candida albicans ATCC 10231 measured after 24 hrs by microdilution method; type: functional
[32] = system: Candida albicans; test: Synergistic antifungal activity against FLC-resistant Candida albicans ATCC 14053 measured after 24 hrs by microdilution method; type: functional
[33] = Toxicity in Balb/c mouse assessed as weight loss at 7.5 to 15 mg/kg, ig measured daily for 6 days in presence of fluconazole; type: organism-based; settings: in vivo, po, 144 h, dose 7.5-15 mg/kg, time 6 day
[34] = system: Candida albicans; test: Synergistic antifungal activity against clinical FLC-resistant Candida albicans 187 measured after 24 hrs in presence of fluconazole by microdilution method; type: functional
[35] = system: Candida albicans; test: Synergistic antifungal activity against clinical FLC-resistant Candida albicans 800 measured after 24 hrs by microdilution method; type: functional
[36] = system: Candida albicans; test: Synergistic antifungal activity against clinical FLC-resistant Candida albicans 799 assessed as fractional inhibitory concentration index measured after 24 hrs by microdilution method; type: functional
[37] = system: Candida albicans; test: Antifungal activity against clinical FLC-resistant Candida albicans 4574 measured after 24 hrs by microdilution method; type: functional
[38] = system: Candida albicans; test: Synergistic antifungal activity against clinical FLC-resistant Candida albicans 602 measured after 24 hrs by microdilution method; type: functional

## CN1CCN(c2nc3ccccc3cc2/C=C/C(=O)c2ccc(N3CCN(Cc4ccc(C(F)(F)F)cc4)CC3)cc2)CC1
[1]
  inhibition: Active
[2]
  inhibition: Active
[3]
  MIC80: 0.91 µg/mL
[4]
  Activity: inactive
[5]
  MIC80: 5.89 µg/mL
[6]
  Activity: inactive
[7]
  Activity: Non-Toxic
[8]
  inhibition: inactive
[9]
  MIC80: > 40 µg/mL
[10]
  Activity: Active
[11]
  Activity: inactive
[12]
  viability at 24 h, 90 ug/ml: 76.5%
[13]
  MIC80: > 40 µg/mL
[14]
  Activity: Active
[15]
  fractional inhibitory concentration index (FICI): 0.14
[16]
  MIC80: 1.35 µg/mL
[17]
  Activity: Dose-Dependent Effect
[18]
  MIC80: > 40 µg/mL
[19]
  MIC80: 5.9 µg/mL
[20]
  Activity: inactive
[21]
  fractional inhibitory concentration index (FICI): 0.15
[22]
  inhibition: Active
[23]
  MIC80: 1.2 µg/mL
[24]
  MIC80: > 40 µg/mL
[25]
  MIC80: > 40 µg/mL
[26]
  fractional inhibitory concentration index (FICI): 0.21
[27]
  inhibition: inactive
[28]
  Activity: inactive
[29]
  inhibition: inactive
[30]
  inhibition: Active
[31]
  MIC80: 5.58 µg/mL
[32]
  MIC80: 0.87 µg/mL
[33]
  Activity: Non-Toxic
[34]
  MIC80: 0.54 µg/mL
[35]
  MIC80: 1.28 µg/mL
[36]
  fractional inhibitory concentration index (FICI): 0.03
[37]
  MIC80: > 40 µg/mL
[38]
  MIC80: 5.67 µg/mL
